Data published in patent US11104805B2, “High-saturation scarlet color dye ink for high-speed inkjet process” (KOREA INSTITUE OF INDUSTRIAL TECHNOLOGY, priority 2018, dated 2021).
Entries after “also recorded” stand apart in the source; their conditions may differ.

Tests used:
Water solubility of dyes = format: physicochemical
[1] = UV-Vis absorption spectra of dyes in water; format: physicochemical; conditions: 10^−5 M in water
Description: The UV-Vis absorption spectra of the dyes 1b to 3b measured at 10^−5 M in water are illustrated in FIG. 2, and corresponding data are shown in Table 1 below. […] When the water solubility of the dye increases, the probability of being present as a single molecule increases, and thus the color developability of each dye molecule is increased, resulting in increased color intensity.
In addition, an absorption peak form having two absorption maxima appeared. This is because a single molecule and aggregated molecules have different absorption maxima. Generally, as the concentration becomes lower, the probability of being present as a single molecule increases, and as the concentration increases, the tendency to aggregate becomes stronger, and thus one peak appears at each maximum, but it was confirmed from this experiment that since the two cases were present at a measurement concentration of 10 μM, absorption peaks appeared separately.

[2] = Thermal stability by TGA under N2 atmosphere; format: physicochemical
Description: The thermal stability of each sample was investigated by a TGA method under an N2 atmosphere.

[3] = Light stability: relative absorbance over time under light irradiation
Description: An absorbance value before light irradiation was set to 1 and relative absorbance values over time were measured.

| εmax ([1]; at first (or only) absorption maximum) | λmax (nm) (after 1,200 min) ([1]; first (or only) absorption maximum) | Td (degradation temperature) [2] | shift of absorption maxima after final light irradiation ([3]; 1,200 minutes) | relative absorbance after final light irradiation ([3]; 1,200 minutes, absorbance before irradiation set to 1) | λmax (nm) (after 1200 min) ([3]; after 1200 min light irradiation, first (or only) maximum) | λmax (nm) ([3]; before light irradiation, first (or only) maximum) | K (photodegradation rate constant) ([3]; light irradiation) | SMILES | water solubility (Water solubility of dyes; in water) | water solubility compared with the synthesized perylene dyes (1b to 3b) (Water solubility of dyes; comparison in words) |
| --- | --- | --- | --- | --- | --- | --- | --- | --- | --- | --- |
| – | – | – | – | – | – | – | – | O=C1c2ccc3c4c(S(=O)(=O)O)cc5c6c(ccc(c7c(S(=O)(=O)O)cc(c2c37)C(=O)N1c1ccc(S(=O)(=O)O)cc1)c64)C(=O)N(c1ccc(S(=O)(=O)O)cc1)C5=O [Dye 3b, N,N′-bis[4-(sulfuric acid)phenyl]-1,7-(disulfuric acid)perylene-3,4,9,10-tetra carboxydiimide] | ≥ 20 wt % | – |
| 23000 L/mol/cm | 521 nm | 291 °C | about 4 nm | about 0.5 | (→ 506) nm | 502 nm | 0.0004945 min⁻¹ | O=S(=O)([O-])c1ccc2c(N=Nc3ccc(S(=O)(=O)[O-])c4ccccc34)c(O)c(S(=O)(=O)[O-])cc2c1.[Na+].[Na+].[Na+] [Acid red 27] | – | poorer water solubility; also recorded: deteriorated solubility |
